From PMC11766867, “Novel 2-Thiazolylhydrazone with Druggable Properties for Antifungal Application” (Journal of Fungi, 2025)
In brackets after ≈: the same amount, converted by molar mass. Where two headings read alike, the source gives them in different places.

Legend:
[1] = test system: Candidozyma (Candida) auris COLO 01; experiment: organism not typed; assay type: cell-based; conditions: 35 °C, 48 h, visual endpoint; for MIC: read-out: Minimal Inhibitory Concentration (MIC) C. auris
Method: (§1) Broth microdilution testing was conducted following the guidelines in the CLSI document M27-A3 (2008) with modifications. Briefly, the following yeast were used in the present study: C. albicans SC5314, C. tropicalis ATCC 750, Candidozyma (Candida) auris COLO 01, C. parapsilosis ATCC 22019, Pichia kudravzevii (C. krusei) ATCC 20298, C. gattii ATCC 24065, C. neoformans ATCC 24067, and S. brasiliensis (189). All fungus strains were stored at a temperature of −80 °C. Before conducting the experiments, the strains were cultivated on Sabouraud dextrose agar (HiMedia, Mumbai, India) at 35 °C to ensure their purity and viability. The yeast phase of S. brasiliensis was grown on brain–heart infusion agar (BHI; Difco, Detroit, MI, USA) with two successive passages of 7 days at 35 °C and CO2 5% [11]. The compounds were tested at concentrations of 0.125–250 µg/mL. For comparative antifungal controls, fluconazole (Sigma-Aldrich, St. Louis, MO, USA), itraconazole (Sigma-Aldrich, St. Louis, MO, USA), and caspofungine (Sigma-Aldrich, St. Louis, MO, USA) were included. The plates were incubated at 35 °C for 48 h for yeast and for 7 days for S. brasiliensis at 35 °C and CO2 5%. The tests were performed in triplicate. The endpoints were determined visually by comparison with the endpoints of the drug-free growth-control well. The value of the minimum inhibitory concentration (MIC) was defined as the lowest extract concentration at which the well was optically clear and was expressed in µg/mL.

S. brasiliensis (189) = experiment: Broth microdilution MIC (CLSI M27-A3 with modifications), yeast phase; assay type: cell-based; conditions: Sporothrix brasiliensis, 168 h, 7 days at 35 °C and CO2 5%, read-out: Minimal Inhibitory Concentration (MIC) S. brasiliensis
Method: as §1, with “The value of the minimum inhibitory concentration (MIC) was defined as the lowest extract concentration at which the well was optically clear and was expressed in µg/mL.” left out

chorioallantoic membrane = experiment: HET-CAM assay (Hen's Egg Test on the Chorioallantoic Membrane), German protocol; assay type: in vivo, Gallus gallus domesticus; conditions: RW3 at 100 µM; for Irritation Score: 300 µL on chorioallantoic membrane, 300 s, mean of six eggs; for Classification (irritation potential): HET-CAM, German protocol
Method: Gallus gallus domesticus eggs (n = 3) at the eighth day of embryonic development were incubated at 37 ± 2 °C and 50% humidity until the test. On the tenth day, the solutions of RW3 (100 µM), 1% DMSO in saline (diluent), 0.1 mol/L NaOH (positive control), and saline solution (negative control) were placed on the chorioallantoic membrane. Following the application of 300 µL of each solution, according to the German protocol, the changes in the membrane were recorded for 300 s, indicating the time of onset of each observed phenomenon (hemorrhage, lysis, and coagulation) and using the following formula to calculate the Irritation Score (IS) (Equation (1)). Each experiment was repeated two times.IS = (301 − sH)/300 × 5 + (301 − sL)/300 × […] + (301 − sC)/300 × 9,(1) where H = hemorrhage, L—lysis, C = coagulation, and s = start second.
Additionally, to assess the possibility of irritation caused by RW3, the Hen’s Egg Test on the Chorioallantoic Membrane (HET-CAM) was performed. The HET-CAM assay is an in vivo semiquantitative test to evaluate the anti-inflammatory potential and anti-irritant properties, as well as the ocular toxicity of compounds/formulations. The benefits of this test include its simplicity, rapid execution, ease of use, and relatively low cost.

[2] = test system: Pichia kudravzevii (C. krusei) ATCC 20298; experiment: Broth microdilution MIC (CLSI M27-A3 with modifications); assay type: cell-based; conditions: ATCC20298, 35 °C, 48 h, visual endpoint, read-out: Minimal Inhibitory Concentration (MIC) P. kudravzevii
Method: as §1

C. tropicalis ATCC 750 = experiment: as above; assay type: cell-based; conditions: Candida tropicalis, ATCC750; 35 °C, 48 h, visual endpoint; read-out: Minimal Inhibitory Concentration (MIC) C. tropicalis
Method: as §1

C. neoformans ATCC 24067 = experiment: as above; assay type: cell-based; conditions: Cryptococcus neoformans, ATCC24067; 35 °C, 48 h, visual endpoint; read-out: Minimal Inhibitory Concentration (MIC) C. neoformans
Method: as §1

[3] = test system: C. parapsilosis ATCC 22019; experiment: as above; assay type: cell-based; conditions: Lodderomyces parapsilosis, ATCC22019; 35 °C, 48 h, visual endpoint; read-out: Minimal Inhibitory Concentration (MIC) C. parapsilosis
Method: as §1

C. albicans SC5314 = experiment: as above; assay type: cell-based; conditions: Candida albicans, 35 °C, 48 h, visual endpoint, read-out: Minimal Inhibitory Concentration (MIC) C. albicans
Method: as §1

C. gattii ATCC 24065 = experiment: as above; assay type: cell-based; conditions: Cryptococcus gattii, ATCC24065; 35 °C, 48 h, visual endpoint; read-out: Minimal Inhibitory Concentration (MIC) C. gattii
Method: as §1

[4] = Saturation shake-flask solubility method; assay type: physicochemical; conditions: for solubility at 24 h: aqueous USP buffer, thermodynamic from solid, n = 3, read-out: Average Solubility mg/mL (±SD)
Method: The equilibrium solubility of RW3 samples was assessed using the shake-flask method. The samples were dispersed in buffers described in the United States Pharmacopeia at pH values of 2.0, 4.5, and 6.8. For each reported solubility result, three independent shake-flask experiments were carried out in parallel. For each experiment, the solid sample was added carefully using a spatula to 2 mL of the aqueous buffer in a glass vial, while stirring, until a heterogeneous system (solid sample and liquid) was obtained. The solution containing solid excess of the sample was then capped, and stirred at 37 °C, 100 rpm, for 24 h in orbital shaker (Tecnal, Campinas, Brazil). An aliquot of 1 mL of the suspension was centrifuged, and the supernatant was then collected and filtered through a 0.2 µm PVDF filter. The resulting solution was then diluted 200× in the mobile phase, and the concentration of the sample in each aliquot was measured by the HPLC method. The RW3 concentrations were determined by injections of 10 µL of the samples via HPLC, using a Waters Alliance system (New Castle, DE, USA). Chromatographic separations were obtained using a PhenoSphere-NEXT® 5 µm C18 column (150 mm; 4,6 mm; Phenomenex®, Torrance, CA, USA) at 40° C. The mobile phase (1 mL/min) was composed of phosphate buffer 20 mM pH 4.0 and acetonitrile (50:50 v/v). The wavelength was set at 308 nm. The HPLC method employed was evaluated for linearity, precision, accuracy, and selectivity.
The determination of the solubility under physiological conditions, particularly considering the different pH levels throughout the gastrointestinal tract, is one of the most important biopharmaceutical parameters that must be generated during the early stages of developing a new drug for oral administration. In this study, the solubility determination of RW3 was carried out using the miniaturized shake flask test, as only a small amount of the compound under investigation was available. In the literature, there are publications that have successfully employed the miniaturized test.

Caco-2 cells [5] = experiment: In vitro Caco-2 cytotoxicity (MTT, ISO 10993-5); assay type: cell-based, human; conditions: 10, 25 and 50 µg/mL; non-cytotoxic if viability exceeds 70% (ISO 10993-5)
Method: (§2) In vitro cytotoxicity assays were carried out following the protocol outlined in the ISO 10993-5 guideline (ISO, 2022). The human colon carcinoma cell line, Caco-2 cells (from ATCC), were cultured in 96-well plates for 24 h at a seeding density of 2 × 10^4 cells/well. The RW3 compound was dissolved in DMEM without phenol to prepare samples of 10, 25, and 50 µg/mL concentrations. Six replicates of each concentration for RW3 were assessed. This range of concentrations was chosen for reasons associated with the subsequent permeability tests. The experiments began by replacing the culture medium in each well with 100 µL of sample or control solutions, followed by a 4 h incubation at 37 °C in a CO2 incubator. Then, the solutions in each well were aspirated, and the cells were further incubated for 2 h with 30 µL of MTT solution (5 mg/mL, Sigma–Aldrich Corp., St. Louis, MO, USA, in DMEM and PBS buffer, 9:1 v/v). Next, formazan crystals were solubilized with 70 µL of isopropyl alcohol acidified with hydrochloric acid and quantified spectrophotometrically at 570 and 690 nm (Spectra Fluor plate reader, Tecan, Grödig, Austria). Cell viability was calculated based on the measured absorbance relative to the absorbance of the cells exposed to the negative controls (DMEM), which represented 100% cell viability, and for the positive control, we employed DMSO 50% in DMEM, which represented 0% cell viability.

[6] = In vitro Caco-2 cytotoxicity (MTT, ISO 10993-5); assay type: cell-based, human; conditions: human, Caco-2 cells, 4 h, MTT, read-out: cell viability
Method: as §2

Caco-2 cells [7] = experiment: In vitro Caco-2 permeability assay; assay type: in vitro ADME, human; conditions: high permeability: Papp > 10 × 10^−6 cm/s
Method: (§3) The Caco-2 cells (from ATCC) were cultured in 12-well Transwell® (Corning Incorporated, New York, NY, USA) insert filters for 21 days at a seeding density of 5 × 10^4 cells/cm^2 to achieve confluence and differentiation. The integrity of the monolayer was examined by measuring the transepithelial electrical resistance (TEER) with an epithelial voltammeter Millicell-ERS (Merck SA—German, Darmstadt, Germany). Only cell monolayers with a TEER above […] were used for the transport assays.
(§4) Transport experiments were conducted by adding 10 µg/mL RW3 in HBSS buffer at pH 6.8 to the apical compartments of the Transwell® plates (Corning, Corning, NY, USA), while the basolateral buffer was maintained at pH 7.4. The plates were agitated in an orbital shaker at 37 °C (100 rpm). Samples (100 µL) were collected from both the basolateral and apical sides at 30, 60, 90, 120, and 180 min. The apparent permeability coefficients (Papp, cm/s) were calculated using the Equation (2):Papp = […](2) where VR is the volume of the receiver compartment (basolateral or apical), DQ/Dt is the linear appearance rate of the compound on the receiver chamber (in ng/cm^3/s), A is the membrane surface area (cm^2), and C0 is the initial concentration in the donor compartment (ng/cm^3). This calculation requires that the sink conditions are fulfilled; therefore, only receiver concentrations below 10% of the donor concentration were employed in the calculations.

[8] = In vitro Caco-2 permeability assay; assay type: in vitro ADME, human; conditions: human, Caco-2
Method: as §3, §4

Row | Structure (SMILES) | MIC (S. brasiliensis (189)) | MIC [1] | MIC [2] | MIC (C. tropicalis ATCC 750) | MIC (C. neoformans ATCC 24067) | MIC [3] | MIC (C. albicans SC5314) | MIC (C. gattii ATCC 24065) | Irritation Score (chorioallantoic membrane) | Classification (irritation potential) (chorioallantoic membrane) | other results
1 | CC[C@H](C)C[C@H](C)CCCCCCCCC(=O)N[C@H]1C[C@@H](O)[C@@H](NCCN)NC(=O)[C@@H]2[C@@H](O)CCN2C(=O)[C@H]([C@H](O)CCN)NC(=O)[C@H]([C@H](O)[C@@H](O)c2ccc(O)cc2)NC(=O)[C@@H]2C[C@@H](O)CN2C(=O)[C@H]([C@@H](C)O)NC1=O [Caspofungin, caspofungine] | – | – | – | – | – | – | – | – | – | – | Minimal Inhibitory Concentration (MIC) C. auris [1]: 0.05 µg/mL
2 | [Na+].[OH-] [0.1 M NaOH, NaOH, reference compound] | – | – | – | – | – | – | – | – | 12.00 | Severe irritant | –

Continued, in another order:

Row | MIC (S. brasiliensis (189)) | MIC [1] | MIC [2] | MIC (C. tropicalis ATCC 750) | MIC (C. neoformans ATCC 24067) | MIC [3] | MIC (C. albicans SC5314) | MIC (C. gattii ATCC 24065) | Structure (SMILES) | Irritation Score (chorioallantoic membrane) | Classification (irritation potential) (chorioallantoic membrane) | other results
3 | 0.5 µg/mL (≈ 0.709 µM) | – | – | – | – | – | – | – | CCC(C)n1ncn(-c2ccc(N3CCN(c4ccc(OCC5COC(Cn6cncn6)(c6ccc(Cl)cc6Cl)O5)cc4)CC3)cc2)c1=O (stereo not drawn) [Itraconazole, itraconazole, reference compound] | – | – | –
4 | – | 64 µg/mL (≈ 209 µM) | 32 µg/mL (≈ 104 µM) | 0.25 µg/mL (≈ 0.816 µM) | 2 µg/mL (≈ 6.53 µM) | 1 µg/mL (≈ 3.27 µM) | 0.5 µg/mL (≈ 1.63 µM) | 2 µg/mL (≈ 6.53 µM) | OC(Cn1cncn1)(Cn1cncn1)c1ccc(F)cc1F [Fluconazole, fluconazole, reference compound] | – | – | –
5 | 15.6 µg/mL (≈ 57.5 µM) | 15.6 µg/mL (≈ 57.5 µM) | 15.6 µg/mL (≈ 57.5 µM) | 125 µg/mL (≈ 461 µM) | 3.9 µg/mL (≈ 14.4 µM) | 125 µg/mL (≈ 461 µM) | 31.3 µg/mL (≈ 115 µM) | 7.8 µg/mL (≈ 28.8 µM) | CCOC(=O)Cc1csc(N/N=C(\C)C(=O)O)n1 [RW3, (E)-2-(2-(4-(2-Ethoxy-2-oxoethyl)thiazol-2-yl)hydrazineylidene)-Propanoic Acid] | 0.76 | Non-irritant | solubility at 24 h ([4]; aqueous buffer, buffer pH 4.5, 37 °C): 1.01 ± 0.01 mg/mL (≈ 3720 µM); solubility at 24 h ([4]; aqueous buffer, buffer pH 6.8, 37 °C): 2.76 ± 0.09 mg/mL (≈ 10200 µM); solubility at 24 h ([4]; simulated gastric fluid, buffer pH 2.0, 37 °C): 0.67 ± 0.001 mg/mL (≈ 2470 µM); maximum daily dose borderline for high solubility classification (BCS, dose/S0 ratio less than 250) ([4]; extrapolated from lowest solubility (pH 2.0)): 168 mg; cytotoxic effects on the Caco-2 cell line (Caco-2 cells [5]): no cytotoxic effects; viability at 4 h, 10 µg/mL ([6]; Caco-2, 10 µg/mL): 100%; viability at 4 h, 25 µg/mL ([6]; Caco-2, 25 µg/mL): 88%; viability at 4 h, 50 µg/mL ([6]; Caco-2, 50 µg/mL): 86%; permeability characterization (BCS) (Caco-2 cells [7]): high permeability compound; Papp A→B at 180 min, 10 µg/mL ([8]; apical−basolateral, 10 µg/mL, apical pH 6.8, basolateral pH 7.4, n = 3): 23.1 ± 9.69 ×10⁻⁶ cm/s; Papp B→A at 180 min, 10 µg/mL ([8]; basolateral−apical, 10 µg/mL, n = 3): 17.7 ± 7.19 ×10⁻⁶ cm/s; efflux ratio at 180 min, 10 µg/mL ([8]; read-out: Ratio Efflux Papp B-A/Papp A-B): 0.76
